{"source": "PubChem BioAssay AID1963836", "about": "(Molecular Pharmacology Branch, DTP, NCI, 2024)", "system": "857933-349-R-J2-PDC complex spheroid viability", "assay": "Anticancer human tumor 857933-349-R-J2-PDC patient-derived colon adenocarcinoma cell line growth inhibition [POLQ]", "conditions": "for viability, T/C: stronger effect = lower value", "description": "Multicellular complex tumor spheroid response to Polymerase (POL) inhibitors (novobiocin, ART-558, RP6685) in combination with a variety of drugs and investigational agents in selected tumor cell lines\nThe POL inhibitors (novobiocin, ART-558, and RP6685) were evaluated both individually and in combination with standard of care and investigational anticancer small molecules within a complex spheroid model of solid tumors. . Complex spheroids include a stromal component modeled by human endothelial cells (HUVEC) and fibroblasts modeled by human mesenchymal stem cells (MSCs). The concentration ranges selected for each drug and investigational agent were based upon clinically achievable concentrations if the clinical Cmax of the agent was known.\nCompounds. The drugs and investigational agents: novobiocin (NSC847541), ART-558 (NSC835418), RP-6685 (NSC848927), peposertib (NSC802822), ceralasertib (NSC780249), elimusertib (NSC800525), camonsertib (NSC841442), AZD-1390 (NSC803789), olaparib (NSC753686), talazoparib (NSC767125), rucaparib (NSC756644), sotorasib (NSC818433), MRTX-1133 (NSC836407), SN-38 (NSC673596), topotecan (NSC609699), epotoside (NSC141540), doxorubicin (NSC123127), gemcitabine (NSC613327), 5-fluorouracil (NSC19893), paclitaxel (NSC125973), vemurafenib (NSC761431), MSA-2 (NSC828583), SN-011 (NSC837082), adavosertib (NSC754352), prexasertib (NSC758257), carboplatin (NSC241240) and oxaliplatin (NSC266046), were obtained from the National Cancer Institute (NCI) Developmental Therapeutics Program Chemical Repository (21). The FDA-approved anticancer drug set is available from the Developmental Therapeutics Program at https://dtp.cancer.gov/organization/dscb/obtaining/. […] The stock solutions were prepared in dimethyl sulfoxide (DMSO, Sigma-Aldrich, St. Louis, MO, cat. D2650), except for the platinum compounds which were prepared in saline (Quality Biological, Gaithersburg, MD, cat. 114-055-101), at 800-fold the tested concentration and stored at -70 degrees C prior to their use. All drugs and investigational agents were tested over a range starting from a high concentration at or near the clinical Cmax and decreasing in half-log increments. If the clinical Cmax for an agent had not been determined, the highest concentration tested was 10 microM, except for SN-38, which was tested at a high concentration of 1 microM.\nCell Culture. All cells were maintained in an incubator at 37 degrees C and 5% CO2 with 95% humidity. The PDC lines were cultured according to standard operating procedures established by the NCI PDMR (https://pdmr.cancer.gov). Table 3 of the manuscript, lists the cell lines along with the number of the three cell types plated to form the mct-spheroids and media for tumor cell growth. After thawing, all PDC lines, except 997537-175-T-J1-PDC and 415267-285-R-J2-PDC, were cultured in Matrigel-coated flasks prepared with a working solution of 1X Ham's F-12 nutrient mix, without supplementation (Thermo Fisher Scientific, cat. 11765054), 100 U/mL penicillin-streptomycin (Thermo Fisher Scientific, cat. 15140122), and 2.5% Matrigel (Corning Inc., Corning, NY, cat. 354248) for the first three passages. The two PDC lines 997537-175-T-J1-PDC and 415267-285-R-J2-PDC were cultured on uncoated flasks. The 857933-349-R-J2-PDC line was cultured in 6C/Colon 1B media containing advanced DMEM/F-12 (Thermo Fisher Scientific, cat. 12634028), 10 mM HEPES (Thermo Fisher Scientific, cat. 15630080), 1X GlutaMAX supplement (Thermo Fisher Scientific, cat. 35050061), 0.1 mg/mL primocin (InvivoGen, San Diego, CA, cat. ant-pm-2), 10% defined fetal bovine serum, heat inactivated (HyClone Laboratories Inc., Logan, UT, cat. SH30070.03HI), 50% L-WRN conditioned media (ATCC, cat. CRL-3276), 1.25 mM N-Acetyl-L-cysteine (Sigma-Aldrich, cat. A9165), 10 mM nicotinamide (Sigma-Aldrich, cat. N0636), 1X B-27 supplement (Thermo Fisher Scientific, cat. 17504044), 1X N-2 supplement (Thermo Fisher Scientific, cat. […]", "note": "“And” between values parts separate entries of the source, which are not always exact repeats. Equal entries are not always repeated.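 Also: spheroids exposed to compounds for seven days before readout.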"}
{"smiles": "CC(=O)O[C@H]1C(=O)[C@@]2(C)[C@H]([C@H](OC(=O)c3ccccc3)[C@]3(O)C[C@H](OC(=O)[C@H](O)[C@@H](NC(=O)c4ccccc4)c4ccccc4)C(C)=C1C3(C)C)[C@]1(OC(C)=O)CO[C@@H]1C[C@@H]2O", "note": "+ Cc1cccc(N(C)C(=O)C2C(O)CCN2c2nc(C)cc(C(F)(F)F)c2C#N)c1", "values": [{"measurement": "IC50", "setting": "curve of first compound, second compound 0.0316 µM", "result": "< 9.49", "unit": "nM"}, {"measurement": "IC50", "setting": "curve of first compound, second compound 0.1 µM", "result": "< 9.49", "unit": "nM"}, {"measurement": "IC50", "setting": "curve of first compound, second compound 0.316 µM", "result": "< 9.49", "unit": "nM"}, {"measurement": "IC50", "setting": "curve of first compound, second compound 1 µM", "result": "< 9.49", "unit": "nM"}, {"measurement": "IC50", "setting": "curve of first compound, second compound 3.16 µM", "result": 10.7, "unit": "nM"}, {"measurement": "IC50", "setting": "curve of first compound, second compound 10 µM", "result": "< 9.49", "unit": "nM"}, {"measurement": "viability, T/C", "setting": "second compound 0.0316 µM, first compound 0.00949 µM", "result": 45.4, "unit": "%"}, {"measurement": "viability, T/C", "setting": "second compound 0.0316 µM, first compound 0.03 µM", "result": 21.2, "unit": "%"}, {"measurement": "viability, T/C", "setting": "second compound 0.0316 µM, first compound 0.0949 µM", "result": 10.7, "unit": "%"}, {"measurement": "viability, T/C", "setting": "second compound 0.0316 µM, first compound 0.3 µM", "result": 11.8, "unit": "%"}, {"measurement": "viability, T/C", "setting": "second compound 0.0316 µM, first compound 0.949 µM", "result": 9.59, "unit": "%"}, {"measurement": "viability, T/C", "setting": "second compound 0.0316 µM, first compound 3 µM", "result": 14.6, "unit": "%"}, {"measurement": "viability, T/C", "setting": "second compound 0.1 µM, first compound 0.00949 µM", "result": 40.1, "unit": "%"}, {"measurement": "viability, T/C", "setting": "second compound 0.1 µM, first compound 0.03 µM", "result": 16.9, "unit": "%"}, {"measurement": "viability, T/C", "setting": "second compound 0.1 µM, first compound 0.0949 µM", "result": 12.6, "unit": "%"}, {"measurement": "viability, T/C", "setting": "second compound 0.1 µM, first compound 0.3 µM", "result": 10.6, "unit": "%"}, {"measurement": "viability, T/C", "setting": "second compound 0.1 µM, first compound 0.949 µM", "result": 14.4, "unit": "%"}, {"measurement": "viability, T/C", "setting": "second compound 0.1 µM, first compound 3 µM", "result": 13.8, "unit": "%"}, {"measurement": "viability, T/C", "setting": "second compound 0.316 µM, first compound 0.00949 µM", "result": 40, "unit": "%"}, {"measurement": "viability, T/C", "setting": "second compound 0.316 µM, first compound 0.03 µM", "result": 19.5, "unit": "%"}, {"measurement": "viability, T/C", "setting": "second compound 0.316 µM, first compound 0.0949 µM", "result": 10.1, "unit": "%"}, {"measurement": "viability, T/C", "setting": "second compound 0.316 µM, first compound 0.3 µM", "result": 12, "unit": "%"}, {"measurement": "viability, T/C", "setting": "second compound 0.316 µM, first compound 0.949 µM", "result": 12.3, "unit": "%"}, {"measurement": "viability, T/C", "setting": "second compound 0.316 µM, first compound 3 µM", "result": 12.4, "unit": "%"}, {"measurement": "viability, T/C", "setting": "second compound 1 µM, first compound 0.00949 µM", "result": 47.7, "unit": "%"}, {"measurement": "viability, T/C", "setting": "second compound 1 µM, first compound 0.03 µM", "result": 20, "unit": "%"}, {"measurement": "viability, T/C", "setting": "second compound 1 µM, first compound 0.0949 µM", "result": 12.6, "unit": "%"}, {"measurement": "viability, T/C", "setting": "second compound 1 µM, first compound 0.3 µM", "result": 10.4, "unit": "%"}, {"measurement": "viability, T/C", "setting": "second compound 1 µM, first compound 0.949 µM", "result": 10.9, "unit": "%"}, {"measurement": "viability, T/C", "setting": "second compound 1 µM, first compound 3 µM", "result": 13.4, "unit": "%"}, {"measurement": "viability, T/C", "setting": "second compound 3.16 µM, first compound 0.00949 µM", "result": 54, "unit": "%"}, {"measurement": "viability, T/C", "setting": "second compound 3.16 µM, first compound 0.03 µM", "result": 15.1, "unit": "%"}, {"measurement": "viability, T/C", "setting": "second compound 3.16 µM, first compound 0.0949 µM", "result": 10.4, "unit": "%"}, {"measurement": "viability, T/C", "setting": "second compound 3.16 µM, first compound 0.3 µM", "result": 12.1, "unit": "%"}, {"measurement": "viability, T/C", "setting": "second compound 3.16 µM, first compound 0.949 µM", "result": 12.1, "unit": "%"}, {"measurement": "viability, T/C", "setting": "second compound 3.16 µM, first compound 3 µM", "result": 13.5, "unit": "%"}, {"measurement": "viability, T/C", "setting": "second compound 10 µM, first compound 0.00949 µM", "result": 35.4, "unit": "%"}, {"measurement": "viability, T/C", "setting": "second compound 10 µM, first compound 0.03 µM", "result": 14.5, "unit": "%"}, {"measurement": "viability, T/C", "setting": "second compound 10 µM, first compound 0.0949 µM", "result": 13.6, "unit": "%"}, {"measurement": "viability, T/C", "setting": "second compound 10 µM, first compound 0.3 µM", "result": 11.8, "unit": "%"}, {"measurement": "viability, T/C", "setting": "second compound 10 µM, first compound 0.949 µM", "result": 13.3, "unit": "%"}, {"measurement": "viability, T/C", "setting": "second compound 10 µM, first compound 3 µM", "result": 15.4, "unit": "%"}]}
{"smiles": "Nc1ccn(C2OC(CO)C(O)C2(F)F)c(=O)n1", "note": "(stereo unspecified)", "values": [{"measurement": "viability, T/C", "setting": "compound 0.0316 µM", "result": "73.9% and 60.7% and 67.2%"}, {"measurement": "viability, T/C", "setting": "compound 0.1 µM", "result": "59.8% and 43.2% and 55.4%"}, {"measurement": "viability, T/C", "setting": "compound 0.316 µM", "result": "25.9% and 10.6% and 33.7%"}, {"measurement": "viability, T/C", "setting": "compound 1 µM", "result": "19.8% and 9.28% and 16.4%"}, {"measurement": "viability, T/C", "setting": "compound 3.16 µM", "result": "13% and 7.52% and 11.1%"}, {"measurement": "viability, T/C", "setting": "compound 10 µM", "result": "10.5% and 5.88% and 9.87%"}, {"measurement": "IC50", "setting": "curve of compound", "result": "139 nM and 63.8 nM and 134 nM"}]}
{"smiles": "CCCS(=O)(=O)Nc1ccc(F)c(C(=O)c2c[nH]c3ncc(-c4ccc(Cl)cc4)cc23)c1F", "values": [{"measurement": "viability, T/C", "setting": "compound 0.0316 µM", "result": "87.2% and 97.5% and 76%"}, {"measurement": "viability, T/C", "setting": "compound 0.1 µM", "result": "91% and 92.8% and 98.1%"}, {"measurement": "viability, T/C", "setting": "compound 0.316 µM", "result": "80.8% and 102% and 99.7%"}, {"measurement": "viability, T/C", "setting": "compound 1 µM", "result": "82.6% and 101% and 102%"}, {"measurement": "viability, T/C", "setting": "compound 3.16 µM", "result": "97.3% and 93.2% and 86%"}, {"measurement": "viability, T/C", "setting": "compound 10 µM", "result": "32.9% and 13.3% and 13.9%"}, {"measurement": "IC50", "setting": "curve of compound", "result": "6990 nM and 5900 nM and 5640 nM"}]}
